The values that follow come from patent publication US8748407B2 (The Research Foundation for the State University of New York, priority 2010, dated 2014).

In this series the target is T1, GluA2Qflip (Rattus norvegicus, UniProt P19491).
T1 construct: expressed in transfected cells; host or cells: HEK-293S
Nature of the series: Whole-cell current recording, GluA2Qflip in HEK-293 cells. The class given is cell-based. The text has this:
The original cDNAs in pBlueScript encoding rat GluA1, 2 and 3 AMPA receptors and GluK2 kainate receptor were kindly provided by Steve Heinemann. The GluA4 DNA plasmid was kindly provided by Peter Seeburg. The GluK1 plasmid was kindly provided by Geoffrey Swanson. The cDNAs of all three NMDA receptor subunits were gifts from John Woodward. All DNA plasmids were propagated using Escherichia coli host (DH5α) and purified using QIAGEN DNA purification kits.
All of the receptors were transiently expressed in HEK-293S cell. HEK-293S cells were maintained in Dulbecco's modified Eagle's medium (DMEM) supplemented with 10% fetal bovine serum and 1% penicillin in a 37° C., 5% CO2, humidified incubator. Receptors were transiently transfected by using calcium phosphate or lipofectamine 2000 (Invitrogen). The DNA plasmids encoding green fluorescent protein (GFP) and T-antigen (TAg) were cotransfected in HEK-293 S cells. GFP was used as a transfection marker for cell recording, and TAg was cotransfected to potentiate the receptor expression at the single-cell level^6. Transfected cells were allowed to grow for 48 hour before they were used for recording.
The procedure for whole-cell current recording to assay the inhibitory property of an RNA aptamer is known to those of skill in the art and has been previously described^7. […] The extracellular buffer composition is described above (see “Receptor Preparation”). For recording of the NMDA channels, the intracellualr solution contained (in mM) 140 CsCl, 1 MgCl2, 0.1 EGTA, and 10 HEPES (pH 7.2 adjusted by […]), while the extracellular solution contained (in mM) 135 NaCl, 5.4 KCl, 1.8 CaCl2, 10 glucose and 5 HEPES (pH 7.2 adjusted by NaOH). In the extracellular buffer, 2 μM of glycine was added (glycine was the co-agonist of NMDA receptor)^2. All reagents including aptamer were dissolved in the corresponding extracellular buffer and used. […] The whole-cell current was recorded using an Axopatch-200B amplifier at a cutoff frequency of 2-20 kHz by a built-in, eight-pole Bessel filter and digitized at 5-50 kHz sampling frequency using a Digidata 1322A from Axon Instruments (Molecular Devices, Sunnyvale, Calif.). The pClamp 8 software (Molecular Devices) was used for data acquisition. All whole-cell recordings were at −60 mV and 22° C.
To deliver AG56 to a HEK-293 cell, a “Ψ”-shaped flow device was used. […] In all experiments reported in this study, a 6-second preincubation flow protocol was used for full aptamer preincubation. […] The corrected current amplitude was used for data analysis.
Determination of KI,app by the ratio of the current amplitude in the absence and presence of inhibitor or A/A(I)—see FIG. 5 in the text. Equ. 10a and 10b were derived based on one inhibitor binding to the receptor. KI, app is the apparent inhibition constant for the inhibitor; other terms have been defined previously.
Under this condition, the inhibition constant for the closed-channel conformation was determined from the ratio of the amplitude according to equ. 10a and 10b. Likewise, at a saturating ligand concentration (i.e., L>>K1), the majority of the receptors were in the open-channel state. Consequently, the inhibition constant associated with the open-channel conformation was measured. The basis of using the two ligand concentrations that corresponded to ˜4% and ˜96% fraction of the open-channel receptor form^7 to determine the corresponding inhibition constant was a putative difference in inhibition constant between the closed-channel and the open-channel conformation. At those low and high ligand concentrations^7, the apparent inhibition constants obtained were considered pertinent to the closed-channel and the open-channel conformations, respectively. Examples of using the current amplitude to determine the inhibition constant for an inhibitor include our previous study of two 2,3-benzodiazepine derivatives with the GluA2Qflip AMPA receptor^15.

T1 sequence (P19491 22-883 isoform P19491-2): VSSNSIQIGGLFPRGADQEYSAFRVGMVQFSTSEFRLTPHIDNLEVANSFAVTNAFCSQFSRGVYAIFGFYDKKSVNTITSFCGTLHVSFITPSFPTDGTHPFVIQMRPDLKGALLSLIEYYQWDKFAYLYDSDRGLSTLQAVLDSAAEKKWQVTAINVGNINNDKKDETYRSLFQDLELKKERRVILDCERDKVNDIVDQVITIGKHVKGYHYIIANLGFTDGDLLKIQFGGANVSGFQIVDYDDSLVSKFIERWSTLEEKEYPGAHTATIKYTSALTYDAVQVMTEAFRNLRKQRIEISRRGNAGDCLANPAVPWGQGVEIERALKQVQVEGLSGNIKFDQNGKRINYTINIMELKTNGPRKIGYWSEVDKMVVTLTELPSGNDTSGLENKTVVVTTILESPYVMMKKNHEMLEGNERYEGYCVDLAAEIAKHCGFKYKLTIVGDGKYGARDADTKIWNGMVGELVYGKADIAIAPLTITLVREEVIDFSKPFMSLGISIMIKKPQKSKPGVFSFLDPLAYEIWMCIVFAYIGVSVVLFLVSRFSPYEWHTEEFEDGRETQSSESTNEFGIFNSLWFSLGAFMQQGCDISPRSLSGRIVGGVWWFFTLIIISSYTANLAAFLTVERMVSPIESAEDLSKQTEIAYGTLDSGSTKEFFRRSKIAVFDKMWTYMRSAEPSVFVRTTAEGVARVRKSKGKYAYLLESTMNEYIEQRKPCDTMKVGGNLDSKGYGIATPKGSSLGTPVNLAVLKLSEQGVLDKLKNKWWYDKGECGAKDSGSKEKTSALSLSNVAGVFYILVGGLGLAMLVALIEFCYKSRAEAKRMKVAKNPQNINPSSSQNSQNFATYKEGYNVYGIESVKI

Turning to “AG56: 56-nucleotide truncated version of AG1407, RNA aptamer (GGGAGAUUGUGAAGCGUAGGCUCGAGUUUGUCCCGCGAGCCAAAGAUUCCAGACCC; RNA, backbone not given here)”, under “GluA2Qflip”, the “inhibitory function of shorter versions of AG1407, based on A/A(I)” value is recorded as “functional sequence”. Besides, the “inhibition of the open-channel conformation” value (GluA2Qflip, high glutamate concentration) was “selectively inhibited the open-channel”. Besides, under “GluA2Qflip, low glutamate concentration”, the “inhibition of the closed-channel conformation” value is “did not inhibit”. For the same substance, the Ki (open-channel conformation of GluA2Qflip, 3 mM glutamate, read-out: inhibition constant) amounted to 950 ± 200 nM.
